Measured values published in the METLIN SMRT retention time set (Domingo-Almenara et al. 2019).

Test: gradient 5% acetonitrile 3 min, to 50% in 2 min, to 85% in 15 min, held 3 min, 100 µL/min
Details: column: Zorbax Extend-C18 2.1 x 50 mm; eluents: water / acetonitrile, 0.1% formic acid
Outline: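 Retention time was recorded from adduct peaks, which were picked computationally and each inspected manually. Pure standards ran in mixtures of ~100 molecules on HPLC coupled to a quadrupole time-of-flight mass spectrometer, in positive and negative ionization mode, through a Zorbax Extend-C18 column (2.1 × 50 mm, 1.8 μm) at 100 μL/min. Eluents were water and acetonitrile, each with 0.1% formic acid.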

SMILES | RP-LC retention time [s]
COc1ccc(C(=O)N2CCc3ccc(C(=O)O)cc32)cc1 | 741
Cc1ccnc(N2CCCC(C(=O)NC3CCCC3)C2)n1 (configuration not stated) | 674
CC(=O)Nc1cccc(N2CC(C(=O)Nc3ccc(OC(F)(F)F)cc3)CC2=O)c1 (configuration not stated) | 760
Cc1nnc2ccc(N3CCC(C)CC3)nn12 | 1000
O=C(CC1CCN(C(=O)c2ccc3oc(-c4ccccc4)nc3c2)CC1)N1CCCC1 | 782
Cc1ccc(S(=O)(=O)N2CCCOC2CNC(=O)C(=O)NCCCn2ccnc2)cc1 (configuration not stated) | 558
Cc1cc(C)n(-c2ccnc(N3CCC(C(=O)NC4CCCC4)CC3)n2)n1 | 786
CC1(C(=O)NCc2ccccc2)CCCN(S(=O)(=O)c2ccccc2Cl)C1 (configuration not stated) | 946
O=C(Nc1ccccc1Br)c1n[nH]nc1Nc1ccccc1 | 1100
CN(CCc1ccccn1)C(=O)CCC1CCCN(c2cc(NC3CC3)ncn2)C1 (configuration not stated) | 561
Cc1cc(C)cc(C(=O)N2CCN(S(=O)(=O)c3cc4c5c(c3)CCC(=O)N5CCC4)CC2)c1 | 815
COc1ccc(Cl)cc1S(=O)(=O)NCC1CCN(C(=O)c2ccccc2F)CC1 | 686
Cc1ccc(N2CCC(NC(=O)c3ccccc3C(F)(F)F)C2=O)cc1 (configuration not stated) | 885
O=C(CN1C[C@H]2C[C@H](C1)[C@H]1CCCC(=O)N1C2)Nc1ccc2c(c1)OCCO2 | 587
CC1CCN(c2cc(-c3noc(C(=O)NCCC4=CCCCC4)n3)ccn2)CC1 | 1100
O=C(Nc1ccc(S(=O)(=O)N2CCCCC2)cc1)c1cc(-c2ccccc2)on1 | 598
NC(=O)C1CCN(C2CC(=O)N(c3ccccc3Sc3ccccc3)C2=O)CC1 (configuration not stated) | 650
Cc1ccc(-c2noc(-c3nc(-c4cccnc4)no3)n2)cc1 | 1090
O=C(NC1CCCCC1)c1csc(-c2ccc(N3CCCC3)nc2)n1 | 739
CC(=O)Nc1ccc(SCCCC(=O)Nc2ncc([N+](=O)[O-])s2)nn1 | 670
COc1cc(NC(=O)Cn2nc(N3CCCC3)c3ccccc3c2=O)cc(OC)c1 | 918

SMILES | RP-LC retention time [s]
Cc1ccnc(N2CCCC(C(=O)NCc3ccc(F)cc3Cl)C2)n1 (configuration not stated) | 792
O=C(Cc1ccc(F)cc1)NC1CCN(c2ccccc2)C1=O (configuration not stated) | 770
Nc1ccccc1Sc1cc(Cl)nnc1Cl | 983
O=C1CC(c2cc(Br)ccc2F)c2scc(S(=O)(=O)c3ccccc3)c2N1 (configuration not stated) | 1010
CNC(=O)c1cc2c(cn1)[nH]c1ccccc12 | 706
CCC(Sc1nnc2n1CCN2c1ccc(OC)cc1)C(=O)OC (configuration not stated) | 735
CCCn1ccc2sc(C)c(C(=O)NC(C)c3ccc(F)cc3)c2c1=O (configuration not stated) | 994
CCOC(=O)C1=Cc2ccc(C(F)(F)C(F)(F)F)cc2N=C(N)C1 | 794
CCOc1ccc(N2C=C(C#N)S(=O)(=O)c3ccc(Cl)cc32)cc1 | 1040
CC(C)CCNC(=O)C1CCCCC(=O)N1 (configuration not stated) | 670
CCC1Oc2ccc(S(=O)(=O)N3CCC(C(=O)Nc4cccc(Cl)c4)CC3)cc2NC1=O (configuration not stated) | 892
COC(=O)c1cccc(Nc2c(-c3ccccc3)nc3cnccn23)c1 | 834
O=C(Cn1cnc2ccccc21)N1CCN(C(=O)C2CC2c2cccs2)CC1 (configuration not stated) | 592
COCC(=O)N1CCc2c(c(-c3nnc(-c4ccccc4Cl)o3)nn2C)C1 | 689
Cc1cc(N2CCN(C(=O)c3cncc(Br)c3)CC2)nc2ccccc12 | 623
O=C(NCc1cscn1)C1CCN(S(=O)(=O)c2cccc(C(F)(F)F)c2)CC1 | 787
O=C(NCc1cccnc1)C1CCN(C(=O)c2ncn3c2COC(c2ccccc2)C3)CC1 (configuration not stated) | 568
O=S(=O)(NC1CCCCCC1)c1ccc(-c2nnc(C3CCC3)o2)o1 | 996
CCN(CC)C(=O)CCC1CCCN(c2cc(NC3CC3)ncn2)C1 (configuration not stated) | 643
COCCNCc1ccc(-c2cc(Cl)cc(Cl)c2)o1 | 722

Next, values leading:

RP-LC retention time [s] | SMILES
918 | Cc1ccc(-n2c(=O)c3c(cc(C)n3C)n(CC(=O)Nc3cccc(Cl)c3C)c2=O)cc1
1230 | Fc1ccc(-c2csc(Nc3ccc(Br)cn3)n2)cc1
695 | Cc1ccn2cc(-c3ccc(NC(=O)c4ccc(Cl)cc4Cl)cc3)nc2n1
915 | O=C(Cn1ccc2ccc(N3CCOCC3)nc21)NCc1ccc(Br)cc1
966 | O=C(CSc1ccc(NC(=O)c2ccco2)cc1)Nc1nc(-c2ccccc2)cs1
743 | CCS(=O)(=O)Nc1ccc2nc(N3CCN(c4cccc(C)c4C)CC3)cc(C(=O)O)c2c1
935 | CCc1nn2c(CNS(=O)(=O)c3cccc(F)c3)c(-c3ccccc3)nc2s1
858 | COc1cc(OC)cc(C(=O)Nc2ccc3c(c2)Sc2ncccc2C(=O)N3C)c1
958 | Cc1nc(C(=O)Nc2ccc(F)c(Cl)c2)c(C)o1
563 | COc1ccc(-c2cc(NCCc3ccc(OC)c(OC)c3)ncn2)cc1
1030 | CC1(C)CC(=O)c2cn(-c3ccccc3)c(=O)c(C(=O)Nc3cc(F)ccc3F)c2C1
996 | CCN1C(=O)COc2cc(-c3noc(C(=O)NC4CCCCC4)n3)ccc21
729 | Cc1ccc(-c2nc3ncccn3c2NCc2ccccc2)cc1
674 | COc1cc([C@@H]2c3cc4c(cc3[C@H](O)[C@@H](CO)[C@@H]2C(=O)NCc2ccc(C)o2)OCO4)cc(OC)c1OC
800 | CCN1C(=O)CCc2cc(NC(=O)c3ccc(C)s3)ccc21
908 | Cc1ccc(Cc2nc(-c3ccnc(N4CCOCC4)c3)no2)cc1
785 | O=C(Cn1c(=O)c2cccn2c2ccc(F)cc21)NCc1cccs1
874 | COCCN1C(=O)c2ccccc2C(C(=O)NCCc2ccc(F)cc2)C12CCCC2 (configuration not stated)
812 | O=C(NCc1ccc(F)cc1F)c1cc2n(n1)CCCC2
1100 | O=C(COc1ccccc1-c1nnc(-c2ccccc2)o1)Nc1ccc2c(c1)OCO2
730 | O=C(Cc1ccc(F)cc1)Nc1cc(-c2cccnc2)no1
993 | COc1ccc(-n2cc(C(=O)OCC3CCCO3)c3ccccc3c2=O)cc1 (configuration not stated)
794 | Cc1ccc(-c2cn3c(CC(=O)NCc4ccc5c(c4)OCO5)csc3n2)cc1C
979 | COc1ccc(-c2cc3nn(CC(=O)Nc4cccc(Cl)c4)c(=O)n3c(C)n2)cc1
887 | COc1ccc(-c2noc(CN3C(=O)COc4ccccc43)n2)c(OC)c1
649 | CCc1nc2c(c(=O)n1CC(=O)NCc1ccc(F)cc1)CN(Cc1ccccc1)CC2
